Test results: ChEMBL document CHEMBL5500377, “Design, synthesis and molecular modeling of novel D-ring substituted steroidal 4,5-dihydropyrazole thiazolinone derivatives as anti-inflammatory agents by inhibition of COX-2/iNOS production and down-regulation of NF-κB/MAPKs in LPS-induced RAW264.7 macrophage cells” (Eur J Med Chem, 2024)
Activity calls are given as the source filed them. The calls are words filed in the database; no cut-off is given here.

How the values were obtained:
RAW264.7 [1] = experiment: Anti-inflammatory activity against mouse RAW264.7 cells assessed as inhibition of LPS-induced activation of NF-kappaB p65 by measuring phosphorylation pretreated for 1 hr followed by induced with LPS measured after 24 hrs by Western blot analysis; assay type: functional, cell-based; conditions: dose 2.5-10 µM, time 25.0 hrs
RAW264.7 [2] = experiment: Anti-inflammatory activity against mouse RAW264.7 cells assessed as inhibition of LPS-induced TNFalpha level at 2.5 uM pretreated for 1 hr followed by induced with LPS measured after 24 hrs by ELISA (reference value: 0.61 ng/ml); assay type: functional; conditions: time 25 hrs
RAW264.7 [3] = experiment: Anti-inflammatory activity against mouse RAW264.7 cells assessed as inhibition of LPS-induced COX2 level at 2.5 uM pretreated for 1 hr followed by induced with LPS measured after 24 hrs by ELISA (reference value: 95.38 pg/ml); assay type: functional; conditions: time 25 hrs
RAW264.7 [4] = experiment: Anti-inflammatory activity against mouse RAW264.7 cells assessed as inhibition of LPS-induced COX2 mRNA level pretreated for 1 hr followed by induced with LPS measured after 6 hrs by quantitative RT-PCR analysis; assay type: functional, cell-based; conditions: dose 2.5-20 µM, time 7.0 hrs
RAW264.7 [5] = experiment: Anti-inflammatory activity against mouse RAW264.7 cells assessed as inhibition of LPS-induced TNFalpha level at 10 uM pretreated for 1 hr followed by induced with LPS measured after 24 hrs by ELISA (reference value: 0.61 ng/ml); assay type: functional; conditions: time 25 hrs
RAW264.7 [6] = experiment: Anti-inflammatory activity against mouse RAW264.7 cells assessed as inhibition of LPS-induced IL-6 mRNA level pretreated for 1 hr followed by induced with LPS measured after 6 hrs by quantitative RT-PCR analysis; assay type: functional, cell-based; conditions: dose 2.5-20 µM, time 7.0 hrs
RAW264.7 [7] = experiment: Inhibition of LPS-induced NFkappaB p65 translocation from cytosol to nucleus in mouse RAW264.7 cells at 2.5 to 10 uM pretreated for 1 hr followed by induced with LPS measured after 24 hrs by Western blot analysis; assay type: subcellular; conditions: dose 2.5-10 µM, time 25.0 hrs
RAW264.7 [8] = experiment: Inhibition of LPS-induced ERK phosphorylation in mouse RAW264.7 cells at 2.5 to 10 uM pretreated for 1 hr followed by induced with LPS measured after 24 hrs by Western blot analysis; assay type: cell-based; conditions: dose 2.5-10 µM, time 25.0 hrs
RAW264.7 [9] = experiment: Anti-inflammatory activity against mouse RAW264.7 cells assessed as inhibition of LPS-induced COX2 level at 20 uM pretreated for 1 hr followed by induced with LPS measured after 24 hrs by ELISA (reference value: 95.38 pg/ml); assay type: functional; conditions: time 25 hrs
RAW264.7 [10] = experiment: Anti-inflammatory activity against mouse RAW264.7 cells assessed as inhibition of LPS-induced TNFalpha mRNA level pretreated for 1 hr followed by induced with LPS measured after 6 hrs by quantitative RT-PCR analysis; assay type: functional, cell-based; conditions: dose 2.5-20 µM, time 7.0 hrs
RAW264.7 [11] = experiment: Anti-inflammatory activity against mouse RAW264.7 cells assessed as inhibition of LPS-induced TNFalpha level pretreated for 1 hr followed by induced with LPS measured after 24 hrs by ELISA; assay type: functional, cell-based; conditions: dose 2.5-20 µM, time 25.0 hrs
[12] = biological target: c-Jun N-terminal kinase (Mus musculus) (UniProt Q91Y86+Q9WTU6+Q61831); experiment: Inhibition of LPS-induced JNK phosphorylation in mouse RAW264.7 cells at 2.5 to 10 uM pretreated for 1 hr followed by induced with LPS measured after 24 hrs by Western blot analysis; assay type: cell-based; conditions: dose 2.5-10 µM, time 25.0 hrs
Chain of c-Jun N-terminal kinase (Mus musculus) (Q61831 whole entry, looked up): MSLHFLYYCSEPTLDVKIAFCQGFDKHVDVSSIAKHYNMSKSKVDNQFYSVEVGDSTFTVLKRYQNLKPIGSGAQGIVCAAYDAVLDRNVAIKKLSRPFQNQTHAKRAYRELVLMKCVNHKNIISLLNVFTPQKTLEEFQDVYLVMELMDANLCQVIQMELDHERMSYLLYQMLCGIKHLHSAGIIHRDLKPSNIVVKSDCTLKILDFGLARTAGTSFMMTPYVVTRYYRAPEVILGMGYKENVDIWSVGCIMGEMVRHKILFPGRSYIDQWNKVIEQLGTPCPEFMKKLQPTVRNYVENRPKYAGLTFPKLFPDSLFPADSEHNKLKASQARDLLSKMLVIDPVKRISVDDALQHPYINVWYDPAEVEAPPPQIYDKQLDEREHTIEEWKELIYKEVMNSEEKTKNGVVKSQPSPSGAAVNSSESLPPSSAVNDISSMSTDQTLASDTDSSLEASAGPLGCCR
Chain of c-Jun N-terminal kinase (Mus musculus) (Q91Y86 whole entry, looked up): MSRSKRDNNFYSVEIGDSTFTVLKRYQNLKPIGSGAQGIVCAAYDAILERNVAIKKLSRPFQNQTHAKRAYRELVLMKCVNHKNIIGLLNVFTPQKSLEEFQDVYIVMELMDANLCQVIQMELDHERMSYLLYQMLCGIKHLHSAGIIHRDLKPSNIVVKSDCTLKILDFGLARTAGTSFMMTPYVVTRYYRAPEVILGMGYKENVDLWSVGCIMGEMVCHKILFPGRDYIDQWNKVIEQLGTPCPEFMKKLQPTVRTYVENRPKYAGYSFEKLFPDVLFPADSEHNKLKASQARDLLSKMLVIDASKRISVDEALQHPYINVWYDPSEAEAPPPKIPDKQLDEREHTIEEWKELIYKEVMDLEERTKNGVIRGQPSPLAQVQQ
Chain of c-Jun N-terminal kinase (Mus musculus) (Q9WTU6 whole entry, looked up): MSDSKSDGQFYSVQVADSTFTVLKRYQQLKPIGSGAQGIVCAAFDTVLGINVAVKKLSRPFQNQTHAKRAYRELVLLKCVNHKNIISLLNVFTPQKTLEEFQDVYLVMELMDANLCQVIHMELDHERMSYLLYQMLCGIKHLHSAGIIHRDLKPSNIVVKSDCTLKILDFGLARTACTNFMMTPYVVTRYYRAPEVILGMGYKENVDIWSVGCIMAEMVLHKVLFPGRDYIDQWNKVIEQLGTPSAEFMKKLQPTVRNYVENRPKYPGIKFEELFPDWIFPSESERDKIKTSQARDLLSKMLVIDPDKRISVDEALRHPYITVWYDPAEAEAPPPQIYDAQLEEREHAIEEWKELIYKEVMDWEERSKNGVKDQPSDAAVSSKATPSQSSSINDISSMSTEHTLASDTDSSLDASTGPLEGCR

RAW264.7 [13] = experiment: Anti-inflammatory activity against mouse RAW264.7 cells assessed as inhibition of LPS-induced COX2 level at 5 uM pretreated for 1 hr followed by induced with LPS measured after 24 hrs by ELISA (reference value: 95.38 pg/ml); assay type: functional; conditions: time 25 hrs
RAW264.7 [14] = experiment: Anti-inflammatory activity against mouse RAW264.7 cells assessed as inhibition of LPS-induced TNFalpha level at 5 uM pretreated for 1 hr followed by induced with LPS measured after 24 hrs by ELISA (reference value: 0.61 ng/ml); assay type: functional; conditions: time 25 hrs
RAW264.7 [15] = experiment: Inhibition of ERK protein level in LPS-induced mouse RAW264.7 cells at 2.5 to 10 uM pretreated for 1 hr followed by induced with LPS measured after 24 hrs by Western blot analysis; assay type: functional, cell-based; conditions: dose 2.5-10 µM, time 25.0 hrs
RAW264.7 [16] = experiment: Inhibition of p38 MAPK protein level in LPS-induced mouse RAW264.7 cells at 2.5 to 10 uM pretreated for 1 hr followed by induced with LPS measured after 24 hrs by Western blot analysis; assay type: functional, cell-based; conditions: dose 2.5-10 µM, time 25.0 hrs
RAW264.7 [17] = experiment: Anti-inflammatory activity against mouse RAW264.7 cells assessed as inhibition of LPS-induced TNFalpha level at 20 uM pretreated for 1 hr followed by induced with LPS measured after 24 hrs by ELISA (reference value: 0.61 ng/ml); assay type: functional; conditions: time 25 hrs
RAW264.7 [18] = experiment: Anti-inflammatory activity against mouse RAW264.7 cells assessed as inhibition of LPS-induced NO production measured after 24 hrs incubation by Griess assay; assay type: functional, cell-based; conditions: RAW264.7, 24 h
RAW264.7 [19] = experiment: Anti-inflammatory activity against mouse RAW264.7 cells assessed as inhibition of LPS-induced COX2 level at 10 uM pretreated for 1 hr followed by induced with LPS measured after 24 hrs by ELISA (reference value: 95.38 pg/ml); assay type: functional; conditions: time 25 hrs
[20] = biological target: MAP kinase p38 (Mus musculus) (UniProt P47811+O08911+Q9WUI1+Q9Z1B7); experiment: Inhibition of LPS-induced p38 MAPK phosphorylation in mouse RAW264.7 cells at 2.5 to 10 uM pretreated for 1 hr followed by induced with LPS measured after 24 hrs by Western blot analysis; assay type: cell-based; conditions: dose 2.5-10 µM, time 25.0 hrs
RAW264.7 [21] = experiment: Anti-inflammatory activity against mouse RAW264.7 cells assessed as inhibition of LPS-induced COX2 level pretreated for 1 hr followed by induced with LPS measured after 24 hrs by Western blot analysis; assay type: functional, cell-based; conditions: dose 2.5-10 µM, time 25.0 hrs
RAW264.7 [22] = experiment: Anti-inflammatory activity against mouse RAW264.7 cells assessed as inhibition of LPS-induced COX2 level pretreated for 1 hr followed by induced with LPS measured after 24 hrs by ELISA; assay type: functional, cell-based; conditions: dose 2.5-20 µM, time 25.0 hrs
RAW264.7 [23] = experiment: Anti-inflammatory activity against mouse RAW264.7 cells assessed as inhibition of LPS-induced iNOS mRNA level pretreated for 1 hr followed by induced with LPS measured after 6 hrs by quantitative RT-PCR analysis; assay type: functional, cell-based; conditions: dose 2.5-20 µM, time 7.0 hrs
[24] = Cytotoxicity against mouse RAW264.7 cells assessed as cell viability at 5 uM measured after 24 hrs incubation by MTT assay relative to control; assay type: toxicity, cell-based; conditions: read-out: Activity
RAW264.7 [25] = experiment: Inhibition of JNK protein level in LPS-induced mouse RAW264.7 cells at 2.5 to 10 uM pretreated for 1 hr followed by induced with LPS measured after 24 hrs by Western blot analysis; assay type: functional, cell-based; conditions: dose 2.5-10 µM, time 25.0 hrs
RAW264.7 [26] = experiment: Reduction in LPS-induced nuclear p65 level in mouse RAW264.7 cells at 2.5 to 10 uM pretreated for 1 hr followed by induced with LPS measured after 24 hrs by Western blot analysis; assay type: functional, cell-based; conditions: dose 2.5-10 µM, time 25.0 hrs
RAW264.7 [27] = experiment: Anti-inflammatory activity against mouse RAW264.7 cells assessed as inhibition of LPS-induced iNOS level pretreated for 1 hr followed by induced with LPS measured after 24 hrs by Western blot analysis; assay type: functional, cell-based; conditions: dose 2.5-10 µM, time 25.0 hrs
RAW264.7 [28] = experiment: Anti-inflammatory activity against mouse RAW264.7 cells assessed as inhibition of LPS-induced NO production at 5 uM measured after 24 hrs incubation by Griess assay relative to control; assay type: functional
BV-2 = experiment: Anti-inflammatory activity against […] assessed as inhibition of LPS-induced NO production at 2.5 to 20 uM measured after 24 hrs incubation by Griess assay; assay type: functional, cell-based; conditions: dose 2.5-20 µM
RAW264.7 [29] = experiment: Inhibition of LPS-induced translocation of NFkappaB p65 heterodimer into nucleus in mouse RAW264.7 cells at 2.5 to 10 uM pretreated for 1 hr followed by induced with LPS measured after 24 hrs by Western blot analysis; assay type: subcellular; conditions: dose 2.5-10 µM, time 25.0 hrs

C[C@]12CC[C@H]3[C@@H](CC=C4C[C@@H](O)CC[C@@]43C)[C@@H]1CC[C@@H]2C1=NN(C2=NC(=O)CS2)C(c2cccc(F)c2)C1 (stereo not given in full)
inhibition (RAW264.7 [1]): Dose-Dependent Effect
Activity (RAW264.7 [2]): 0.51 ng/mL
Activity (RAW264.7 [3]): 0.0824 ng/mL
inhibition (RAW264.7 [4]): Dose-Dependent Effect
Activity (RAW264.7 [5]): 0.33 ng/mL
inhibition (RAW264.7 [6]): Dose-Dependent Effect
inhibition (RAW264.7 [7]): Active
inhibition (RAW264.7 [8]): Active
Activity (RAW264.7 [9]): 0.0378 ng/mL
inhibition (RAW264.7 [10]): Dose-Dependent Effect
inhibition (RAW264.7 [11]): Dose-Dependent Effect
inhibition [12]: Active
Activity (RAW264.7 [13]): 0.0624 ng/mL
Activity (RAW264.7 [14]): 0.42 ng/mL
inhibition (RAW264.7 [15]): inactive
Activity (RAW264.7 [16]): inactive
Activity (RAW264.7 [17]): 0.3 ng/mL
IC50 (RAW264.7 [18]): 2340 nM
Activity (RAW264.7 [19]): 0.0428 ng/mL
inhibition [20]: Active
inhibition (RAW264.7 [21]): Dose-Dependent Effect
inhibition (RAW264.7 [22]): Dose-Dependent Effect
inhibition (RAW264.7 [23]): Dose-Dependent Effect
viability at 24 h, 5 µM [24]: 97.4%
Activity (RAW264.7 [25]): inactive
inhibition (RAW264.7 [26]): Active
inhibition (RAW264.7 [27]): Dose-Dependent Effect
inhibition at 5 µM (RAW264.7 [28]): 45.4%
inhibition (BV-2): Active
inhibition (RAW264.7 [29]): Active
